Test results from BindingDB's records for doi:10.1021/jm00053a025 (University of Minnesota, 1993).

Experiment: Binding affinity for delta opioid receptor was determined using radioligand [3H]DPDPE in Guinea pig brain membranes.

CCCCC(=N)NCc1ccc2[nH]c3c(c2c1)C[C@@]1(O)C2Cc4ccc(O)c5c4[C@@]1(CCN2CC1CC1)C3O5 (stereo partly drawn) [22-cyclopropylmethyl-7-(1-iminopentylaminomethyl)-(2S)-14-oxa-11,22-diazaheptacyclo[13.9.1.01,13.02,21.04,12.05,10.019,25]pentacosa-4(12),5(10),6,8,15,17,19(25)-heptaene-2,16-diol]
Ki: 5.5 nM
